ChEMBL document CHEMBL3784917, “Recent Progress in Histone Demethylase Inhibitors” (J Med Chem, 2016)

Tests used:
[1] = biological target: T1, Lysine-specific demethylase 4A (Homo sapiens, UniProt O75164); assay: Inhibition of full-length FLAG-tagged KDM4A (unknown origin) expressed in human HeLa cells assessed as increase in H3K9me3 level after 24 hrs by DAPI staining based immunofuorescence assay; assay type: cell-based
T1 sequence (O75164 whole entry): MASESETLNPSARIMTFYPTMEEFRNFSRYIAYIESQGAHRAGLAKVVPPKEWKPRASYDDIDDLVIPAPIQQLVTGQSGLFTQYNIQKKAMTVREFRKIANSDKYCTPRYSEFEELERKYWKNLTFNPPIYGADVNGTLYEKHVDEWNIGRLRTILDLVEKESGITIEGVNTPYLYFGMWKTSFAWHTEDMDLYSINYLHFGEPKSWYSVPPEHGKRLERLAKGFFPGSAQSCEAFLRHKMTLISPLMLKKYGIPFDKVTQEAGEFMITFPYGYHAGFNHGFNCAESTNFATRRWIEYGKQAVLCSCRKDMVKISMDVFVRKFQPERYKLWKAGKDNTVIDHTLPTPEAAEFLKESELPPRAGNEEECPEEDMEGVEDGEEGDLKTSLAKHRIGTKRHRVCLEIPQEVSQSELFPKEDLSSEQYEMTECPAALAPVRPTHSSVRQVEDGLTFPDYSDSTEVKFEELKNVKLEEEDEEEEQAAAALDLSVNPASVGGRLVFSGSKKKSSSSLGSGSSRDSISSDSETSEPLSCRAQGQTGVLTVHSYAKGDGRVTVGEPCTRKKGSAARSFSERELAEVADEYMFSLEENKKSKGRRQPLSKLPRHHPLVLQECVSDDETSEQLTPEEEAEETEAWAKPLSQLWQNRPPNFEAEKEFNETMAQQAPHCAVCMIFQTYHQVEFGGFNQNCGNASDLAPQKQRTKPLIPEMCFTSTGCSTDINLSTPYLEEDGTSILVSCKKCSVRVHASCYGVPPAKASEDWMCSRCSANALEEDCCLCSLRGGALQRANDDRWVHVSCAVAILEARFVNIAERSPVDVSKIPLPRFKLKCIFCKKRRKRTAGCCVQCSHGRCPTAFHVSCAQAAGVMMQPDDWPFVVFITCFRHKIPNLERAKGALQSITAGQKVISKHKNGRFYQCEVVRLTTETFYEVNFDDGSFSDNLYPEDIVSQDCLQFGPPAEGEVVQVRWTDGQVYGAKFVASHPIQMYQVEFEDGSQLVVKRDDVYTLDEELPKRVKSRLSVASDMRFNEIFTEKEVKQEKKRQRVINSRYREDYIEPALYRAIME

[2] = biological target: T1, Lysine-specific demethylase 4A; assay: Inhibition of KDM4A in human MCF7 cells assessed as increase in H3K9me3 level after 24 hrs by DAPI staining based immunofuorescence assay; assay type: cell-based
[3] = biological target: T2, Lysine-specific demethylase 4E (Homo sapiens, UniProt B2RXH2); assay: Inhibition of KDM4E (unknown origin) preincubated for 15 mins followed by histone substrate addition measured after 1 hr by alphascreen assay
[4] = biological target: T3, Lysine-specific demethylase 5C (Homo sapiens, UniProt P41229); assay: Inhibition of KDM5C (unknown origin) preincubated for 15 mins followed by histone substrate addition measured after 1 hr by alphascreen assay
[5] = biological target: T1, Lysine-specific demethylase 4A
[6] = biological target: T3, Lysine-specific demethylase 5C; assay: Inhibition of KDM5C (unknown origin) after 24 hrs by alphascreen assay
[7] = biological target: T4, Lysine-specific demethylase 4C (Homo sapiens, UniProt Q9H3R0); assay: Inhibition of KDM4C (unknown origin) using H3K9me3 as substrate after 24 hrs by alphascreen assay
T4 sequence (Q9H3R0 whole entry): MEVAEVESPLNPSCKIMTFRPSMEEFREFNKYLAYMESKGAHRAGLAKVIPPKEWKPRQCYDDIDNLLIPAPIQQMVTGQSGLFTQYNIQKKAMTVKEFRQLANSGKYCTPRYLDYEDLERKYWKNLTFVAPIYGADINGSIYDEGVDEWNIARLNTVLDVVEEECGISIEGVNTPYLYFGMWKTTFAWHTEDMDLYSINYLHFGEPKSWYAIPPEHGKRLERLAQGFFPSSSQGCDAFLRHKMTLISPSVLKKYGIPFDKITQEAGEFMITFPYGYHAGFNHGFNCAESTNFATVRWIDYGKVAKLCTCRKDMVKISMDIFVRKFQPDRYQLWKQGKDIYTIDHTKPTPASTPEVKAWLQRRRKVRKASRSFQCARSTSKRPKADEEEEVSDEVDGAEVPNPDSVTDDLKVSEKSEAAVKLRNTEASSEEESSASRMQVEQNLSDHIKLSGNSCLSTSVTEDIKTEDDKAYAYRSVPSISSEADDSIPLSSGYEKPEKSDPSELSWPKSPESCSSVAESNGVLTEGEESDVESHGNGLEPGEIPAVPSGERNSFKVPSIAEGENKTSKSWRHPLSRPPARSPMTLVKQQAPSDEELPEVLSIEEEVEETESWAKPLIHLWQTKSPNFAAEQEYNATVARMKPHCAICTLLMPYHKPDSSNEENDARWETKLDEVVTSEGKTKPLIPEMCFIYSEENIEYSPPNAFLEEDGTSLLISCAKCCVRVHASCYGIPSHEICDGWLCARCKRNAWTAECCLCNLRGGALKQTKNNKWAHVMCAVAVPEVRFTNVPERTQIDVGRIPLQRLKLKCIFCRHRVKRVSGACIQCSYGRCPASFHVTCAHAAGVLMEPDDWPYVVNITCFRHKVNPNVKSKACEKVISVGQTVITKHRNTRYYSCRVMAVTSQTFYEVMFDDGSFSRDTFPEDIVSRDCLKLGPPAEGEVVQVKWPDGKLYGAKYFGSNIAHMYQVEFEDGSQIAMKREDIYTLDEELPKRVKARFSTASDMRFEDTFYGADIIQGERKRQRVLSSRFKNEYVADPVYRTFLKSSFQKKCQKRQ

[8] = biological target: T2, Lysine-specific demethylase 4E; assay: Inhibition of KDM4E (unknown origin) after 24 hrs by alphascreen assay
[9] = biological target: Lysine-specific demethylase 6B (Homo sapiens, UniProt O15054); assay: Inhibition of KDM6B (unknown origin) after 24 hrs by alphascreen assay
Chain of Lysine-specific demethylase 6B (O15054 whole entry): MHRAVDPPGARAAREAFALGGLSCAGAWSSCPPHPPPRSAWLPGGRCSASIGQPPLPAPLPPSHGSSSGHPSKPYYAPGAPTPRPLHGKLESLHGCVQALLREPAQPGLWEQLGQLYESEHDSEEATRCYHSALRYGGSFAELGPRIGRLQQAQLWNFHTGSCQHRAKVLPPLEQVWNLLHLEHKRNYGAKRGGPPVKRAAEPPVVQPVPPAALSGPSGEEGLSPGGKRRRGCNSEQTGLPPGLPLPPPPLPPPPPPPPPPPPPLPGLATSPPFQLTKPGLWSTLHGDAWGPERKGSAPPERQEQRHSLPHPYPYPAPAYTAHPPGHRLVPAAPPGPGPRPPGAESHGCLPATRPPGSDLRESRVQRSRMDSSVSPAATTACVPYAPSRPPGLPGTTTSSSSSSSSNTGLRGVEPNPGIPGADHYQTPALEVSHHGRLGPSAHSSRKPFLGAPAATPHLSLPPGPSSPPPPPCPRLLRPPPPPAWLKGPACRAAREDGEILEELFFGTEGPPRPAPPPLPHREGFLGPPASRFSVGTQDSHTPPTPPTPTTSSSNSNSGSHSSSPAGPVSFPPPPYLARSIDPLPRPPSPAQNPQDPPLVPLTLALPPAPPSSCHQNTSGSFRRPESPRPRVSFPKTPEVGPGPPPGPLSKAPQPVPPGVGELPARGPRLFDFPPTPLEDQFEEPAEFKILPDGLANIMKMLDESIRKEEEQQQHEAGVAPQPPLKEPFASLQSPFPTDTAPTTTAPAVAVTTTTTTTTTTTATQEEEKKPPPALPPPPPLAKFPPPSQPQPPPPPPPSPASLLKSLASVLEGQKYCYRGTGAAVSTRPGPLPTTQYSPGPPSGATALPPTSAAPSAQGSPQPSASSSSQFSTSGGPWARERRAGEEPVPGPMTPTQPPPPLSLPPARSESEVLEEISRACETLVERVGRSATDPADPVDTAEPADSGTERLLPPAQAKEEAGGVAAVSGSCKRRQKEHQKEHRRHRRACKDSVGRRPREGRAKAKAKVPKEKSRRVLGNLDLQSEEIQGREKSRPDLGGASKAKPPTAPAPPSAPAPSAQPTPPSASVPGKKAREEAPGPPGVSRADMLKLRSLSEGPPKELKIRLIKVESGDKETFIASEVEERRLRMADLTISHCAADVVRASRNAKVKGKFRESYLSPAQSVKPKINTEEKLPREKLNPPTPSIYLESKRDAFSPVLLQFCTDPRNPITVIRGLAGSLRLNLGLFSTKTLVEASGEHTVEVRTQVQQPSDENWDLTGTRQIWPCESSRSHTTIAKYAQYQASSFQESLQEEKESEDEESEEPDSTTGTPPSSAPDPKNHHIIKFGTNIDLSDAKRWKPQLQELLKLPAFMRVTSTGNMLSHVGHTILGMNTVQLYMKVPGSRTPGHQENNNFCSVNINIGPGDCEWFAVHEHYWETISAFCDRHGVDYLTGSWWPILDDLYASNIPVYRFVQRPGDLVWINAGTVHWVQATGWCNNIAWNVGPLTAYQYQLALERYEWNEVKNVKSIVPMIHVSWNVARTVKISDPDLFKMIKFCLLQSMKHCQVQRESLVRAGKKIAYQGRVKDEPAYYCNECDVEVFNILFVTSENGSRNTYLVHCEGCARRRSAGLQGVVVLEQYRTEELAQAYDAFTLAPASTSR

T3 sequence (P41229 whole entry): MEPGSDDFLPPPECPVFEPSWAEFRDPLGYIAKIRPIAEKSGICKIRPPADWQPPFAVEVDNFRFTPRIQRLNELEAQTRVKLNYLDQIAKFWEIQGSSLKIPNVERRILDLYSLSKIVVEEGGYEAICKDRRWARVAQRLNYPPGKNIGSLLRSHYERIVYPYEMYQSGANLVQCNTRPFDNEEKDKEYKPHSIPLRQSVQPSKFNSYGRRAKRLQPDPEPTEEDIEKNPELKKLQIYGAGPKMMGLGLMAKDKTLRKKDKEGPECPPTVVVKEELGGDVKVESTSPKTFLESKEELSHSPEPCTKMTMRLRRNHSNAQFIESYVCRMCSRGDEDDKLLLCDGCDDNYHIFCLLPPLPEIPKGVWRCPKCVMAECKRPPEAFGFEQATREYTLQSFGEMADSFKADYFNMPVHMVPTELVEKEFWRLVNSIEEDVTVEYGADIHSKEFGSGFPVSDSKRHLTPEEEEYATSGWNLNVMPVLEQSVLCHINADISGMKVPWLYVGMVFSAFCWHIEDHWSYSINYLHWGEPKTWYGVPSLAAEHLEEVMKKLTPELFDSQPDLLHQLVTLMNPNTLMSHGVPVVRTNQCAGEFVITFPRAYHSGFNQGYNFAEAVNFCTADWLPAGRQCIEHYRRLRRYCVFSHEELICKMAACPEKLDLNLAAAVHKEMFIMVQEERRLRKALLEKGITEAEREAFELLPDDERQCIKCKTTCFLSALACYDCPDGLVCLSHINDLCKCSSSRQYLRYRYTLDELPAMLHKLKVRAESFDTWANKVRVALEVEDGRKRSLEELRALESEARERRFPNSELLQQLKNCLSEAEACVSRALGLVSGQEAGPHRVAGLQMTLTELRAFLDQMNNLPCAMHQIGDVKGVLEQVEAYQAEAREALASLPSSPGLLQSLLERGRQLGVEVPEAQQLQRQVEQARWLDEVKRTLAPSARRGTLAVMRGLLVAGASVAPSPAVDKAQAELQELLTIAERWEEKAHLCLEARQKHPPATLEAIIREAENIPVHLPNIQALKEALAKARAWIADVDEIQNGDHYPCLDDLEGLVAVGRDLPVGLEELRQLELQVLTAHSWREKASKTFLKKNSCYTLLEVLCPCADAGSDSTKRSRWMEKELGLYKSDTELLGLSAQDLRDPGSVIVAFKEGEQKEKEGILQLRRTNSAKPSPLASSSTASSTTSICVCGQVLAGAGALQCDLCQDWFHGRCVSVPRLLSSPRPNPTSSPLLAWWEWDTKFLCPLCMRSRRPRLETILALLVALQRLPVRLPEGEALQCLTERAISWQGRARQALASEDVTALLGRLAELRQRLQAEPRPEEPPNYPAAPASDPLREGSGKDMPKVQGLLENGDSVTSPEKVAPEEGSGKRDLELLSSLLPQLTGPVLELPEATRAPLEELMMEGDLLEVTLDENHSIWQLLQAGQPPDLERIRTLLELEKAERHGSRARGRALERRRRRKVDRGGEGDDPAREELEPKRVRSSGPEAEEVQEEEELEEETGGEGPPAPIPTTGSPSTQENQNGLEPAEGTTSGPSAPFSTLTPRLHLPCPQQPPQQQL
T2 sequence (B2RXH2 whole entry): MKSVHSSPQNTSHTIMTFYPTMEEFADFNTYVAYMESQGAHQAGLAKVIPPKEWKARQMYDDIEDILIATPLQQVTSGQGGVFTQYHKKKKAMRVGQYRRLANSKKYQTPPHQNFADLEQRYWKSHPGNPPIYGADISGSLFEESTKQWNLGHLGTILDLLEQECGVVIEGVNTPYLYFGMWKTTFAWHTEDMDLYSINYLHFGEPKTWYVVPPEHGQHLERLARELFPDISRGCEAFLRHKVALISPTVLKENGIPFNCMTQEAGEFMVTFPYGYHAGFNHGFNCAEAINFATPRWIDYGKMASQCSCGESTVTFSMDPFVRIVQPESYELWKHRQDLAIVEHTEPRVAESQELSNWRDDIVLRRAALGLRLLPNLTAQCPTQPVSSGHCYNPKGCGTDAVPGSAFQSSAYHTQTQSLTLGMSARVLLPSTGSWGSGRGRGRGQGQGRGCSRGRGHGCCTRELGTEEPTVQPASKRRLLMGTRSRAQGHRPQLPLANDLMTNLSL

EC50 [1] | EC50 [2] | IC50 [3] | IC50 [4] | EC50 [5] | IC50 [6] | IC50 [7] | IC50 [8] | IC50 [9] | Compound
9 µM | 12 µM | 5 µM | 178 µM |  |  |  |  |  | Cc1ccsc1C(NC(=O)c1ccccc1)c1cc(Cl)c2cccnc2c1O (racemic)
 |  |  |  | 3.8 µM | > 100 µM | 3.9 µM | 45 µM | > 100 µM | CCCCCCCCOC(=O)c1ccc(O)c2ncccc12
